pIC50: −log10 of the molar value. Counter-ions that a name gives are not always drawn. Like-named read-outs stand apart in the source and are kept apart here.
Tests used:
human arginase I (ARG I) = target: T1, human arginase I (ARG I) (Homo sapiens, UniProt P05089); assay: Inhibition of arginase I, spectrophotometric urea assay at 530 nm; assay type: biochemical; conditions: read-out: Potency (ARG I)
T1 sequence (P05089 1-322): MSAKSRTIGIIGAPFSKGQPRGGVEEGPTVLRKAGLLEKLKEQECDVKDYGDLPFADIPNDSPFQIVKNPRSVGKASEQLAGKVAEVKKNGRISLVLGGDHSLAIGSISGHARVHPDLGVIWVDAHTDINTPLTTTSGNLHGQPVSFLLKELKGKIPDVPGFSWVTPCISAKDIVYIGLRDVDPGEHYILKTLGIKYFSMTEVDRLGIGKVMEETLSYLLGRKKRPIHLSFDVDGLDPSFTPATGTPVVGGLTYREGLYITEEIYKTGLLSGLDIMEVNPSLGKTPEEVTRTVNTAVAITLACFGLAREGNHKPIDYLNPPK
Method in brief: (§1)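 IC50 was derived by regression of OD530 normalized to uninhibited-enzyme controls against log concentration. Urea from 60-min, 37 °C turnover of L-arginine with manganese sulfate was detected after acid o-phthaldialdehyde/primaquine quench and 10 min colour development. Arginase I and II came from 100 ng/ml stocks in pH 7.4 phosphate with ovalbumin.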

arginase II (ARG II) = target: T2, arginase II (ARG II) (Homo sapiens, UniProt P78540); assay: Inhibition of arginase II, spectrophotometric urea assay at 530 nm; assay type: biochemical
T2 sequence (P78540 23-354): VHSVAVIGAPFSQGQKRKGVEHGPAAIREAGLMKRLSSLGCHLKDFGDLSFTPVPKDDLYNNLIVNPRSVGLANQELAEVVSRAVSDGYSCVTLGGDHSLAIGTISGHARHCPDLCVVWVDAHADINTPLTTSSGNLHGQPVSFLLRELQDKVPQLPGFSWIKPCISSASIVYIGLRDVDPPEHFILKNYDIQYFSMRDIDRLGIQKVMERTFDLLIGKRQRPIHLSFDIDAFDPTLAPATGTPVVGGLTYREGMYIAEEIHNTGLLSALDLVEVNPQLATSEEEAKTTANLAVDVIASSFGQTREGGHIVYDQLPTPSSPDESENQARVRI
Method in brief: as §1

[1] = Formula I compounds, Table 2, read-out: Potency (ARG II)
[2] = Formula II compounds, Table 2-A
[3] = Formula II compounds, Table 2-A, read-out: Potency (ARG)

NC(CCCCB(O)O)C(=O)c1ccccc1 (centres unmarked) [compound 114, 5-amino-6-oxo-6-phenylhexylboronic acid hydrochloride]
pIC50 (human arginase I (ARG I); Formula I compounds, Table 2): < 5.30 | pIC50 (arginase II (ARG II); [1]): < 5.30

NC(CCCCB(O)O)(C(=O)O)[C@H]1C[C@@H](N)C1 (stereo partly drawn) [Example 81-A, cis-2-amino-2-(3-aminocyclobutyl)-6-boronohexanoic acid dihydrochloride]
pIC50 (human arginase I (ARG I); [2]): 6.60 to 10.00 | pIC50 (arginase II (ARG II); [3]): 6.60 to 10.00

NC(CCCCB(O)O)(C(=O)O)C1CCN(C(=O)NCc2ccc(Cl)cc2)CC1 (centres unmarked) [31-A, 2-amino-6-borono-2-{1-[(4-chlorobenzyl)carbamoyl]-piperidin-4-yl}hexanoic acid hydrochloride]
pIC50 (human arginase I (ARG I); [2]): 5.70 to 6.00 | pIC50 (arginase II (ARG II); [3]): 5.30 to 5.70

NC(CCCCB(O)O)(C(=O)O)C1CCN(C(=S)Nc2ccc(Cl)cc2)CC1 (centres unmarked) [34-A, 2-amino-6-borono-2-(1-{[(4-chlorophenyl)amino]carbonothioyl}piperidin-4-yl)hexanoic acid hydrochloride]
pIC50 (human arginase I (ARG I); [2]): 6.00 to 6.60 | pIC50 (arginase II (ARG II); [3]): 6.00 to 6.60

NC(CCCCB(O)O)(C(=O)O)C1CCN(C(=O)Cc2ccc(Cl)cc2)CC1 (centres unmarked) [29-A, 2-amino-6-borono-2-{1-[(4-chlorophenyl)acetyl]-piperidin-4-yl}hexanoic acid hydrochloride]
pIC50 (human arginase I (ARG I); [2]): 5.70 to 6.00 | pIC50 (arginase II (ARG II); [3]): < 5.30

Cc1cc(C(F)(F)F)cc(N2CCC(C(N)(CCCCB(O)O)C(=O)O)CC2)n1 (centres unmarked) [7-A, 2-amino-6-borono-2-(1-(6-methyl-4-(trifluoromethyl)pyridin-2-yl)piperidin-4-yl)hexanoic acid]
pIC50 (human arginase I (ARG I); [2]): 5.70 to 6.00 | pIC50 (arginase II (ARG II); [3]): 5.30 to 5.70

CCC(O)C(N)(CCCCB(O)O)C(=O)O (centres unmarked) [compound 108, 2-amino-6-borono-2-(1-hydroxypropyl)hexanoic acid hydrochloride]
pIC50 (human arginase I (ARG I); Formula I compounds, Table 2): 5.70 to 6.00 | pIC50 (arginase II (ARG II); [1]): 5.30 to 5.70

NC(CCCCB(O)O)(C(=O)O)[C@@H]1CCN(Cc2ccc(C(F)(F)F)cc2)C1 (mixture of isomers) [38-A, 2-amino-6-borono-2-((R)-1-(4-(trifluoromethyl)benzyl)pyrrolidin-3-yl)hexanoic acid dihydrochloride]
pIC50 (human arginase I (ARG I); [2]): 6.00 to 6.60 | pIC50 (arginase II (ARG II); [3]): 6.00 to 6.60

COc1ccc(OCCC(N)(CCCCB(O)O)C(=O)O)cc1 (centres unmarked) [compound 93, 2-amino-6-borono-2-(2-(4-methoxyphenoxy)ethyl)hexanoic acid hydrochloride]
pIC50 (human arginase I (ARG I); Formula I compounds, Table 2): < 5.30 | pIC50 (arginase II (ARG II); [1]): < 5.30

NC(CCCCB(O)O)(CCN1CCC(Cc2ccc(Cl)cc2)CC1)C(=O)O (centres unmarked) [compound 122, 2-amino-6-borono-2-(2-(4-(4-chlorobenzyl)piperidin-1-yl)ethyl)hexanoic acid dihydrochloride]
pIC50 (human arginase I (ARG I); Formula I compounds, Table 2): 6.00 to 6.60 | pIC50 (arginase II (ARG II); [1]): 6.00 to 6.60

NC(CCCCB(O)O)(C(=O)O)[C@H]1C[C@@H](NCc2cccc3cccnc23)C1 (stereo partly drawn) [Example 79-A, cis-2-amino-6-borono-2-(3-(quinolin-8-ylmethylamino)cyclobutyl)hexanoic acid dihydrochloride]
pIC50 (human arginase I (ARG I); [2]): 6.60 to 10.00 | pIC50 (arginase II (ARG II); [3]): 6.60 to 10.00

COc1ccccc1N1CCN(CCC(N)(CCCCB(O)O)C(=O)O)CC1 (centres unmarked) [compound 50, 2-amino-6-borono-2-(2-(4-(2-methoxyphenyl)piperazin-1-yl)ethyl)hexanoic acid dihydrochloride]
pIC50 (human arginase I (ARG I); Formula I compounds, Table 2): < 5.30 | pIC50 (arginase II (ARG II); [1]): < 5.30

NCCN(CCN)CCC(N)(CCCCB(O)O)C(=O)O (centres unmarked) [compound 51, 2-amino-2-(2-(bis(2-aminoethyl)amino)ethyl)-6-boronohexanoic acid tetrahydrochloride]
pIC50 (human arginase I (ARG I); Formula I compounds, Table 2): 5.70 to 6.00 | pIC50 (arginase II (ARG II); [1]): 5.30 to 5.70

NC(CCCCB(O)O)(C(=O)O)C1CCN(CCCc2ccccc2)CC1 (centres unmarked) [Example 102-A, 2-amino-6-borono-2-(1-(3-phenylpropyl)piperidin-4-yl)hexanoic acid dihydrochloride]
pIC50 (human arginase I (ARG I); [2]): 6.60 to 10.00 | pIC50 (arginase II (ARG II); [3]): 6.60 to 10.00

N[C@](CCCCB(O)O)(CCN1CC[C@@H](CO)C1)C(=O)O [compound 7, (R)-2-amino-6-borono-2-(2-((R)-3-(hydroxymethyl)pyrrolidin-1-yl)ethyl)hexanoic acid dihydrochloride]
pIC50 (human arginase I (ARG I); Formula I compounds, Table 2): 6.60 to 10.00 | pIC50 (arginase II (ARG II); [1]): 6.00 to 6.60

NC(CCCCB(O)O)(C(=O)O)[C@H]1C[C@@H](NCc2ccc(-c3ccccc3)cc2)C1 (stereo partly drawn) [Example 77-A, cis-2-amino-2-(3-(biphenyl-4-ylmethylamino)cyclobutyl)-6-boronohexanoic acid dihydrochloride]
pIC50 (human arginase I (ARG I); [2]): 6.60 to 10.00 | pIC50 (arginase II (ARG II); [3]): 6.60 to 10.00

CN(C)CCN(C)CCC(N)(CCCCB(O)O)C(=O)O (centres unmarked) [compound 71, 2-amino-6-borono-2-(2-((2-(dimethylamino)ethyl)(methyl)amino)ethyl)hexanoic acid trihydrochloride]
pIC50 (human arginase I (ARG I); Formula I compounds, Table 2): 5.30 to 5.70 | pIC50 (arginase II (ARG II); [1]): 5.30 to 5.70

NC(CCCCB(O)O)(C(=O)O)C(O)C1CNC1 (centres unmarked) [compound 113, 2-amino-2-(azetidin-3-yl(hydroxy)methyl)-6-boronohexanoic acid dihydrochloride]
pIC50 (human arginase I (ARG I); Formula I compounds, Table 2): 6.60 to 10.00 | pIC50 (arginase II (ARG II); [1]): 6.00 to 6.60

CNC(CCCCB(O)O)(CCCN1CCCC1)C(=O)O (centres unmarked) [compound 137, 6-borono-2-(methylamino)-2-(3-(pyrrolidin-1-yl)propyl)hexanoic acid dihydrochloride]
pIC50 (human arginase I (ARG I); Formula I compounds, Table 2): 6.60 to 10.00 | pIC50 (arginase II (ARG II); [1]): 6.60 to 10.00

NC(CCCCB(O)O)(C(=O)O)C1CCN(C(=S)Nc2cccc3ccccc23)CC1 (centres unmarked) [Example 45-A, 2-amino-6-borono-2-(1-(naphthalen-1-ylcarbamothioyl)piperidin-4-yl)hexanoic acid]
pIC50 (human arginase I (ARG I); [2]): 6.00 to 6.60 | pIC50 (arginase II (ARG II); [3]): 5.70 to 6.00

NC(CCCCB(O)O)(C(=O)O)C1CCCNCC1 (centres unmarked) [Example 72-A, 2-amino-2-(azepan-4-yl)-6-boronohexanoic acid dihydrochloride]
pIC50 (human arginase I (ARG I); [2]): 6.60 to 10.00 | pIC50 (arginase II (ARG II); [3]): 6.00 to 6.60

NC(CCCCB(O)O)(C(=O)O)C1CCN(Cc2ccc(Cl)c(F)c2)CC1 (centres unmarked) [Example 49-A, 2-amino-6-borono-2-(1-(4-chloro-3-fluorobenzyl)piperidin-4-yl)hexanoic acid]
pIC50 (human arginase I (ARG I); [2]): 6.00 to 6.60 | pIC50 (arginase II (ARG II); [3]): 6.60 to 10.00

NC(CCCCB(O)O)(CCN1CCC(C(F)(F)F)CC1)C(=O)O (centres unmarked) [compound 39, 2-amino-6-borono-2-(2-(4-(trifluoromethyl)piperidin-1-yl)ethyl)hexanoic acid dihydrochloride]
pIC50 (human arginase I (ARG I); Formula I compounds, Table 2): 5.70 to 6.00 | pIC50 (arginase II (ARG II); [1]): 5.30 to 5.70

NC(CCCCB(O)O)(C(=O)O)C1CCN(Cc2csc3ccccc23)CC1 (centres unmarked) [Example 104-A, 2-amino-2-(1-(benzo[b]thiophen-3-ylmethyl)piperidin-4-yl)-6-boronohexanoic acid dihydrochloride]
pIC50 (human arginase I (ARG I); [2]): 6.60 to 10.00 | pIC50 (arginase II (ARG II); [3]): 6.60 to 10.00

COCCN1CCN(CCC(N)(CCCCB(O)O)C(=O)O)CC1 (centres unmarked) [compound 77, 2-amino-6-borono-2-(2-(4-(2-methoxyethyl)piperazin-1-yl)ethyl)hexanoic acid trihydrochloride]
pIC50 (human arginase I (ARG I); Formula I compounds, Table 2): 5.30 to 5.70 | pIC50 (arginase II (ARG II); [1]): < 5.30

CC(C)NCCC(N)(CCCCB(O)O)C(=O)O (centres unmarked) [compound 55, 2-amino-6-borono-2-(2-(isopropylamino)ethyl)hexanoic acid dihydrochloride]
pIC50 (human arginase I (ARG I); Formula I compounds, Table 2): 6.60 to 10.00 | pIC50 (arginase II (ARG II); [1]): 6.00 to 6.60

NC(CCCCB(O)O)(CCN1CCCC1c1cc2ccccc2o1)C(=O)O (centres unmarked) [compound 42, 2-amino-2-(2-(2-(benzofuran-2-yl)pyrrolidin-1-yl)ethyl)-6-boronohexanoic acid dihydrochloride]
pIC50 (human arginase I (ARG I); Formula I compounds, Table 2): 5.30 to 5.70 | pIC50 (arginase II (ARG II); [1]): 5.30 to 5.70

NC(CCCCB(O)O)(Cc1cnc[nH]1)C(=O)O (centres unmarked) [compound 102, 2-((1H-imidazol-5-yl)methyl)-2-amino-6-boronohexanoic acid dihydrochloride]
pIC50 (human arginase I (ARG I); Formula I compounds, Table 2): 5.30 to 5.70 | pIC50 (arginase II (ARG II); [1]): 5.30 to 5.70
